{"source": "patent US20250205265A1", "about": "“ASPERULOSIDE AS AN AGENT FOR IMPROVING VASCULAR AND METABOLIC FUNCTION IN OBESITY: ROLE OF NRF2 ACTIVATION” (The Chinese University of Hong Kong, priority 2023, published 2025)", "key": {"[1]": {"tested_on": "FAS, ACC2, SREBP1C, HSL", "assay": "Real-time PCR of lipid metabolism genes in PA-treated HepG2 cells", "assay_type": "cell-based", "settings": "palmitic acid, Nrf2-inhibited HepG2 cells", "protocol": "(§1) After induction of obesity in C57BL/6 male mice fed with the high-fat diet for twelve weeks, they were treated daily with ASP (50 mg/kg) via oral gavage for seven weeks in vivo study. C57BL/6 mice aortae were used for ex vivo studies. Endothelial cells, HepG2 and primary adipocytes were used for in vitro studies. Vascular function was determined by wire myograph. H&E staining was employed for histological examination. Oil Red O staining was used to determine lipid droplets in tissues and cells. DHE and MitoSOX staining were used to detect ROS levels. QPCR, aortic en-face immunofluorescence staining, and Western blotting were used to analyze mRNA and protein expressions. ARE binding activity was determined by Dual luciferase reporter assay. Small interfering (si)RNA of Nrf2 and HO-1, inhibitors of Nrf2 (ML385, Cat. No.: HY-100523) and HO-1 (OB-24, HY-118487) were used to elucidate the mechanistic pathway of ASP's action."}, "[2]": {"tested_on": "HO-1", "assay": "HO-1 expression in endothelial cells (western blotting, real-time PCR)", "assay_type": "cell-based", "protocol": "(§2) After induction of obesity in C57BL/6 male mice fed with high fat diet for twelve weeks, they were treated daily with ASP (50 mg/kg) via oral gavage for seven weeks in vivo study. C57BL/6 mice aortae were used for ex vivo study and endothelial cells were used for in vitro study. Vascular function was determined by wire myograph. DHE and MitoSOX staining were used to detect ROS levels. QPCR, aortic en-face immunofluorescence staining, and Western blotting were used to analyze mRNA and protein expressions. Small interfering (si)RNA of Nrf2 and HO-1, inhibitors of Nrf2 (ML385, Cat. No.: HY-100523) and HO-1 (OB-24, HY-118487) were used to elucidate the mechanistic pathway of ASP's action.\nas §1"}, "[3]": {"tested_on": "HO-1", "assay": "Aortic en-face immunofluorescence staining of HO-1", "parameters": "species or system mice", "protocol": "as §2, §1"}, "[4]": {"tested_on": "Nrf2", "assay": "Real-time PCR of Nrf2 in obese mice aortas", "assay_type": "in vivo", "protocol": "as §2\nas §1, with “QPCR, aortic en-face immunofluorescence staining, and Western blotting were used to analyze mRNA and protein expressions.” left out, “Small interfering (si)RNA of Nrf2 and HO-1, inhibitors of Nrf2 (ML385, Cat. No.: HY-100523) and HO-1 (OB-24, HY-118487) were used to elucidate the mechanistic pathway of ASP's action.” left out"}, "[5]": {"tested_on": "Nrf2", "assay": "Nrf2 nuclear translocation and protein level in obese mice livers", "assay_type": "in vivo", "protocol": "as §1"}, "[6]": {"tested_on": "ICAM-1", "assay": "Real-time PCR of ICAM-1 in aortas of obese mice", "assay_type": "in vivo", "protocol": "as §2\nas §1, with “QPCR, aortic en-face immunofluorescence staining, and Western blotting were used to analyze mRNA and protein expressions.” left out, “Small interfering (si)RNA of Nrf2 and HO-1, inhibitors of Nrf2 (ML385, Cat. No.: HY-100523) and HO-1 (OB-24, HY-118487) were used to elucidate the mechanistic pathway of ASP's action.” left out"}, "[7]": {"tested_on": "lipid droplets in obese mice livers", "assay": "H&E and Oil Red O staining of obese mice livers", "assay_type": "in vivo", "settings": "ASP 50 mg/kg oral gavage daily for seven weeks", "protocol": "as §1"}, "[8]": {"molecular_target": "T1, Nrf2 protein (Mus musculus, UniProt Q60795)", "T1 construct": "endogenous in cells", "T1 sequence (Q60795 whole entry)": "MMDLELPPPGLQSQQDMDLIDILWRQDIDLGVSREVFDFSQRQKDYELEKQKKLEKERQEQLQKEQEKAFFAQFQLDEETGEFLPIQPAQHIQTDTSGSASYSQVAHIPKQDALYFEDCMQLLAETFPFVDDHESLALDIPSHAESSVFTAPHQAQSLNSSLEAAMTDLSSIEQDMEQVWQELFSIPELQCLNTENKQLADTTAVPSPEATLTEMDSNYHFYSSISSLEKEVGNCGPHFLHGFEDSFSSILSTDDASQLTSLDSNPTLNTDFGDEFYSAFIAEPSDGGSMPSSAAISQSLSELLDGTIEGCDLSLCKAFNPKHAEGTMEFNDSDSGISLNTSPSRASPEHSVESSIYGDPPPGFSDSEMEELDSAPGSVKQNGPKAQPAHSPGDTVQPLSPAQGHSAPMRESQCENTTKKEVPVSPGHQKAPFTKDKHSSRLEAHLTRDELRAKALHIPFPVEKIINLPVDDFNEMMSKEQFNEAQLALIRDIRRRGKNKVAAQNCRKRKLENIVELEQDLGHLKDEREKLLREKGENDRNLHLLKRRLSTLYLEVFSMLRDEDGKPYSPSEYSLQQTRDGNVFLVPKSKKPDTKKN", "assay": "CETSA in endothelial cells", "assay_type": "binding", "settings": "ASP 40 μmol/L", "protocol": "The Nrf2 protein expression was normalized to total protein. P values were determined using One-way ANOVA. *p<0.05. Data represent means±SEM of 3 experiments."}, "[9]": {"tested_on": "VCAM-1 and ICAM-1", "assay": "Endothelial activation (VCAM-1 and ICAM-1) in endothelial cells", "assay_type": "cell-based", "protocol": "as §2\nas §1, with “QPCR, aortic en-face immunofluorescence staining, and Western blotting were used to analyze mRNA and protein expressions.” left out, “Small interfering (si)RNA of Nrf2 and HO-1, inhibitors of Nrf2 (ML385, Cat. No.: HY-100523) and HO-1 (OB-24, HY-118487) were used to elucidate the mechanistic pathway of ASP's action.” left out"}, "[10]": {"tested_on": "Nrf2/antioxidant responsive element (ARE)", "assay": "ARE binding activity, luciferase reporter assay in endothelial cells", "assay_type": "cell-based", "settings": "for endothelial Nrf2/ARE binding, higher than the binding to impaired endothelial cells: worded as embodiment, cf. FIG. 3D", "protocol": "as §1"}, "[11]": {"tested_on": "Nrf2", "assay": "Nrf2 nuclear translocation in palmitic acid-treated HepG2 cells", "assay_type": "cell-based", "protocol": "as §1"}, "[12]": {"tested_on": "high-fat diet (HFD)-fed mice", "assay": "Vascular function by wire myograph, aortas of obese mice", "assay_type": "in vivo", "settings": "ASP 50 mg/kg oral gavage daily for seven weeks", "protocol": "as §2\nas §1, with “QPCR, aortic en-face immunofluorescence staining, and Western blotting were used to analyze mRNA and protein expressions.” left out, “Small interfering (si)RNA of Nrf2 and HO-1, inhibitors of Nrf2 (ML385, Cat. No.: HY-100523) and HO-1 (OB-24, HY-118487) were used to elucidate the mechanistic pathway of ASP's action.” left out"}, "[13]": {"settings": "endothelial cells under basal conditions"}, "[14]": {"settings": "obese mice aortae, ASP 50 mg/kg oral gavage daily for seven weeks"}}, "note": "Entries after “also recorded” stand apart in the source; their conditions may differ."}
{"substance": "Asperuloside", "values": [{"measurement": "HSL mRNA expression", "setting": "[1]", "result": "fails to restore palmitic acid-decreased HSL mRNA expression"}, {"measurement": "HO-1 mRNA", "setting": "[2]; IL-1β, ML385-treated cells", "result": "fails to restore IL-1β-mediated downregulation of HO-1 protein (FIG. 4B) and mRNA"}, {"measurement": "HO-1 protein", "setting": "[2]; IL-1β, ML385-treated cells", "result": "fails to restore IL-1β-mediated downregulation of HO-1 protein"}, {"measurement": "HO-1 upregulation (western blotting)", "setting": "[2]; Nrf2-silenced cells", "result": "ASP-induced upregulation of HO-1 is eliminated; also recorded: Nrf2 knockdown attenuated HO-1 upregulation by ASP"}, {"measurement": "HO-1 expression (western blotting)", "setting": "[2]; [13]", "result": "dose-dependently upregulated HO-1 expression"}, {"measurement": "HO-1 mRNA (real-time PCR)", "setting": "[2]; [13]", "result": "dose-dependently increases HO-1 mRNA"}, {"measurement": "HO-1 expression (en-face immunofluorescence)", "setting": "[3]; EC-specific knockdown of Nrf2", "result": "EC-specific knockdown of Nrf2 abolishes the upregulation of HO-1 by ASP treatment"}, {"measurement": "HO-1 expression (en-face immunofluorescence)", "setting": "[3]; OB-24-treated aortas", "result": "fails to increase HO-1 expression"}, {"measurement": "endothelial HO-1 expression (en-face immunofluorescence)", "setting": "[3]; inhibition of Nrf2/ARE binding (ML385)", "result": "inhibition of Nrf2/ARE binding eliminates the endothelial upregulation of HO-1 by ASP treatment"}, {"measurement": "increase of Nrf2 expression", "setting": "[4]; [14]", "result": "about 1.5 fold"}, {"measurement": "Nrf2 mRNA expression level", "setting": "[4]; obese mice aortas, real-time PCR", "result": "increases mRNA expression level of Nrf2"}, {"measurement": "Nrf2 nuclear translocation (immunofluorescence)", "setting": "[5]; obese mice livers", "result": "stimulates Nrf2 nuclear translocation in obese mice livers"}, {"measurement": "Nrf2 protein level (western blot)", "setting": "[5]; obese mice livers", "result": "increased"}, {"measurement": "increase of protein level of Nrf2 in the liver", "setting": "[5]; worded as embodiment, cf. FIG. 13B", "result": "about 3 fold"}, {"measurement": "ICAM-1 mRNA expression", "setting": "[6]; aortas of obese mice, real-time PCR", "result": "decreases elevated expression of VCAM-1 and ICAM-1 mRNA"}, {"measurement": "reduction of ICAM-1 expression", "setting": "[6]; [14]", "result": "about 2 fold"}, {"measurement": "accumulated lipid droplets (H&E, Oil Red O)", "setting": "[7]", "result": "attenuates obesity-induced accumulated lipid droplets"}, {"measurement": "melting behavior of Nrf2 protein (CETSA)", "setting": "[8]; 0.3 ng/mL IL-1β-treated endothelial cells", "result": "changes the melting behavior of Nrf2 protein"}, {"measurement": "melting behavior of Nrf2 protein (CETSA)", "setting": "[8]; [13]", "result": "changes the melting behavior of Nrf2 protein"}, {"measurement": "endothelial activation", "setting": "[9]; HO-1-silencing (HO-1-siRNA transfected) endothelial cells", "result": "fails to decrease ROS level (FIG. 2E) or inhibit endothelial activation; also recorded: failed to prevent endothelial dysfunction in HO-1 inhibited aortae (FIGS. 2A-2D) and HO-1-siRNA transfected endothelial cells"}, {"measurement": "overexpression of VCAM-1 and ICAM-1", "setting": "[9]; endothelial cells", "result": "inhibits overexpression of VCAM-1 and ICAM-1"}, {"measurement": "endothelial Nrf2/ARE binding, higher than the binding to impaired endothelial cells", "setting": "[10]; 10 μm ASP", "result": "about 50%"}, {"measurement": "endothelial Nrf2/ARE binding, higher than the binding to impaired endothelial cells", "setting": "[10]; 20 μm ASP", "result": "~60", "unit": "%"}, {"measurement": "endothelial Nrf2/ARE binding, higher than the binding to impaired endothelial cells", "setting": "[10]; 40 μm ASP", "result": "~70", "unit": "%"}, {"measurement": "ARE binding activity", "setting": "[10]; luciferase reporter assay", "result": "increased ARE binding activity"}, {"measurement": "Nrf2 nuclear translocation (immunofluorescence)", "setting": "[11]", "result": "stimulates Nrf2 nuclear translocation in palmitic acid-treated HepG2 cells"}, {"measurement": "acetylcholine-induced endothelium-dependent relaxations (EDRs)", "setting": "[12]", "result": "prevents HFD-induced impairment of EDRs; also recorded: significantly reversed the impairments of endothelium-dependent relaxations; also recorded: significantly improved endothelial-dependent relaxations"}, {"measurement": "endothelium-independent relaxations in response to sodium nitroprusside (SNP)", "setting": "[12]", "result": "remain similar among different groups"}]}
